Results published in patent US20240336748A1, “A METHOD FOR PREPARING HYALURONIC ACID GRAFTED POLY(N-ISOPROPYLACRYLAMIDE) (HA-G-PNI-PAM)” (NABSOLUTE COMPANY LIMITED, priority 2021, published 2024).

Test system: fibroblast L929 cell
Experiment: Side effect test, toxic reduction of asiatic acid, PrestoBlue assay
Assay type: cell-based
Details: 12.5 μM asiatic acid dissolved in DMSO in cell culture media
Description: Side effect test of Sample 2 in colloid form at concentration of 0, 0.1, 0.15 and 0.25% w/v form was studied by considering the toxic reduction of asiatic acid in fibroblast L929 cell via PrestoBlue™ assay.

Question: For `C[C@H]1[C@H](C)CC[C@]2(C(=O)O)CC[C@]3(C)C(=CC[C@@H]4[C@@]5(C)C[C@@H](O)[C@H](O)[C@@](C)(CO)[C@@H]5CC[C@]43C)[C@H]12` [asiatic acid], which Cell viability is on record?
Answer: The Cell viability was 5%.
